We go through two molecules from patent US20050255097A1, “Modified venom and venom components as anti-retroviral agents” (priority 2004, published 2005).

The subject of series [1] is T cells from peripheral blood. The following applies: Mizuno, et al., 1982; cited from earlier work.
Series [2] concerns mice. The format is in vivo. The source says:
Administration of a highly toxic substance such as cobratoxin for therapeutic purposes is fraught with obvious difficulties, even when highly diluted. As a diluted substance, its potential effectiveness is reduced, and due to its high affinity for the nAchR, continued use could result in accumulation of the toxin at neuromuscular junctions and the diaphragm with the potential for adverse events. Alpha cobratoxin, of the Thailand cobra, Naja naja kaouthia, is a homogeneous non-glycosylated polypeptide composed of 71 amino acids with a molecular weight of 7821d and a pI of 9.6. Detoxification of alpha-cobratoxin can be achieved by exposure to heat, formamide, hydrogen peroxide, perchloric acid, ozone or other oxidizing agents. The result of exposure of cobratoxin to oxidizing agents is modification of amino acid side chains as well as the lysis of one or more disulfide bonds. […] The procedures used for detoxification described here are based upon the work of Sanders, who preferred the use of hydrogen peroxide (Sanders, et al., 1975). Loss of toxicity by oxidized alpha-neurotoxins (MCTX), as cobratoxin, can be determined by the intraperitoneal (IP) injection of excess levels of the modified protein into mice. […]
The endpoint of the above reactions are most easily determined by assessing the toxicity of the preparation in mice. […]

Series [3] can be described thus: pI and pH of protein solutions. It counts as physicochemical.
Series [4] relates to Semliki Forest virus. The series can be described thus: Antiviral activity against Semliki Forest virus (plaque assay). The format is cell-based. The source says:
Alternatively, an enzyme linked immunosorbant assay (ELISA) can evaluate loss of toxicity, as well as potential potency in terms of continued ability to bind to the nAchR. […] This enables a measurement of the depression in binding of the modified neurotoxin to nAchR, indicative of loss of toxicity, while simultaneously indicating a continued ability of the modified toxin to bind to the nAchR providing a measure of potency (Raymond; unpublished data). To test the effectiveness, or potency of detoxified venom, Sanders utilized a plaque assay with Semliki Forest virus (Miller, et al., 1977).

The format of series [5] is cell-based. The settings on record: virus not specified.
The subject of series [6] is herpesvirus. As to the kind of experiment: Antiviral activity against herpes virus. It counts as cell-based.

As for `C[N+](C)(C)CCOC(N)=O.[Cl-]` [carbamylcholine chloride], the “decrease of E-rosette formation” value in series [1] is recorded as 30%-40%.

In turn, “alpha-cobratoxin: native non-glycosylated polypeptide of 71 amino acids from the Thailand cobra, Naja naja kaouthia” registered an LD50 in mice in series [2] (injected subcutaneously or intraperitoneally, death observable within hours) of 1.2 µg. For the same molecule, the time to death in series [2] (injection of 1.5 mcg, 25 g mouse) was ≤ 25 min. In addition, in series [3], the pH of solution is listed as 8.5 and the pI is listed as 9.6. The “antiviral activity against Semliki Forest virus” value in series [4] was “does not have any antiviral activity”. For the same molecule, the antiviral activity result in series [5] was “does not demonstrate antiviral activity”. For the same molecule, the “antiviral activity against herpes” value in series [6] is recorded as “does not have any antiviral activity”.
